Experimental findings from US11497710B2, “Eye drop formulation and method for sustained delivery of medicament to the retina” (Chibi, Inc., priority 2018, dated 2022) are described below.

Data set [1] can be described thus: Vitamin E acetate in rabbit tear samples after single 50 μL instillation. In kind it is in vivo. How it is done: Subsequently, tear samples were collected using filter paper strips, and the vitamin E acetate contained in the paper strips extracted using methanol. The amount of vitamin E acetate in the methanol extracts was analyzed using LC/MS/MS by known methods.

Data set [2] can be described thus: Vitamin E acetate in rabbit aqueous humor samples. Format: in vivo. As to conditions: days 1, 4, 7, 12; quantification limit 1.0 ng/mL.

With `CC(=O)Oc1c(C)c(C)c2c(c1C)CC[C@@](C)(CCC[C@H](C)CCC[C@H](C)CCCC(C)C)O2` [Vitamin E acetate, [(2R)-2,5,7,8-tetramethyl-2-[(4R,8R)-4,8,12-trimethyltridecyl]chroman-6-yl] acetate], the “Time vitamin E acetate present in tears of rabbit eyes” value in data set [1] is “at least 12 days”. The concentration at 1 day in data set [1] (rabbit, tears, topical, Day 1) came out at 5.25 µg/mL. This compound displayed a concentration at 4 day in data set [1] (rabbit, tears, topical, Day 4) of 0.114 µg/mL. The concentration at 7 day in data set [1] (rabbit, tears, topical, Day 7) turned out to be 0.0986 µg/mL. Also, the concentration at 12 day in data set [1] (rabbit, tears, topical, Day 12) turned out to be 0.0274 µg/mL. Besides, the “Vitamin E acetate in aqueous humor samples” value in data set [2] is given as “No detectable”.
